From US20150105252A1, “SUBSTITUTED PYRAZOLES AS HERBICIDES” (E I DU PONT DE NEMOURS AND COMPANY, priority 2013, published 2015)

Columns and labels:
canarygrass = assay: Test D preemergence; format: in vivo, Phalaris minor; settings: Preemergence, scale 0 to 100
Summary of the method: (§1)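 Visual 0–100 control ratings at 14–21 days in a controlled growth environment. Application preemergence onto silt loam or postemergence onto 2–18 cm seedlings, using a non-phytotoxic solvent formulation with surfactant.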

field violet = assay: Test D postemergence; format: in vivo, Viola arvensis; settings: scale 0 to 100
Summary of the method: as §1

ryegrass, Italian = assay: Test D postemergence; format: in vivo, Lolium multiflorum; settings: scale 0 to 100
Summary of the method: as §1

radish, wild [1] = assay: Test D preemergence; format: in vivo, Raphanus raphanistrum; settings: Preemergence, scale 0 to 100
Summary of the method: as §1

radish, wild [2] = assay: Test D postemergence; format: in vivo, Raphanus raphanistrum; settings: scale 0 to 100
Summary of the method: as §1

deadnettle = assay: Test D preemergence; format: in vivo, Lamium amplexicaule; settings: Preemergence, scale 0 to 100
Summary of the method: as §1

mustard, wild [3] = assay: Test D postemergence; format: in vivo, Sinapis arvensis; settings: scale 0 to 100
Summary of the method: as §1

galium = assay: Test D postemergence; format: in vivo, Galium aparine; settings: scale 0 to 100
Summary of the method: as §1

windgrass = assay: Test D postemergence; format: in vivo, Apera spica-venti; settings: scale 0 to 100
Summary of the method: as §1

foxtail, green [4] = assay: Test D postemergence; format: in vivo, Setaria viridis; settings: scale 0 to 100
Summary of the method: as §1

barley, winter = assay: Test D preemergence; format: in vivo, Hordeum vulgare; settings: Preemergence, scale 0 to 100
Summary of the method: as §1

barley, spring = assay: Test D preemergence; format: in vivo, Hordeum vulgare; settings: Preemergence, scale 0 to 100
Summary of the method: as §1

mustard, wild [5] = assay: Test D preemergence; format: in vivo, Sinapis arvensis; settings: Preemergence, scale 0 to 100
Summary of the method: as §1

wheat, winter = assay: Test D postemergence; format: in vivo, Triticum aestivum; settings: scale 0 to 100
Summary of the method: as §1

wheat, spring = assay: Test D postemergence; format: in vivo, Triticum aestivum; settings: scale 0 to 100
Summary of the method: as §1

pigweed = assay: Test D preemergence; format: in vivo, Amaranthus retroflexus; settings: Preemergence, scale 0 to 100
Summary of the method: as §1

oat, wild = assay: Test D preemergence; format: in vivo, Avena fatua; settings: Preemergence, scale 0 to 100
Summary of the method: as §1

foxtail, green [6] = assay: Test D preemergence; format: in vivo, Setaria viridis; settings: Preemergence, scale 0 to 100
Summary of the method: as §1

blackgrass = assay: Test D preemergence; format: in vivo, Alopecurus myosuroides; settings: Preemergence, scale 0 to 100
Summary of the method: as §1

chickweed = assay: Test D postemergence; format: in vivo, Stellaria media; settings: scale 0 to 100
Summary of the method: as §1

CCCc1cc(C(=O)NC(C)C)nn1Cc1cc(C(F)(F)F)nn1C [Compound 201]
35: Plant response rating, Barley, Winter (barley, winter; 62 g ai/ha) | Plant response rating, Blackgrass (blackgrass; 31 g ai/ha)
50: Ryegrass, Italian plant response rating (ryegrass, Italian; Postemergence, 250 g ai/ha)
45: Windgrass plant response rating (windgrass; Postemergence, 250 g ai/ha) | Plant response rating, Barley, Winter (barley, winter; 125 g ai/ha)
100: Plant response rating, Canarygrass (canarygrass; 62 g ai/ha) | Plant response rating, Canarygrass (canarygrass; 125 g ai/ha) | Plant response rating, Canarygrass (canarygrass; 250 g ai/ha) | Plant response rating, Radish, Wild (radish, wild [1]; 62 g ai/ha) | Plant response rating, Radish, Wild (radish, wild [1]; 125 g ai/ha) | Plant response rating, Radish, Wild (radish, wild [1]; 250 g ai/ha) | Plant response rating, Deadnettle (deadnettle; 31 g ai/ha) | Plant response rating, Deadnettle (deadnettle; 62 g ai/ha) | Plant response rating, Deadnettle (deadnettle; 125 g ai/ha) | Plant response rating, Deadnettle (deadnettle; 250 g ai/ha) | Plant response rating, Barley, Winter (barley, winter; 250 g ai/ha) | Plant response rating, Mustard, Wild (mustard, wild [5]; 62 g ai/ha) | Plant response rating, Mustard, Wild (mustard, wild [5]; 125 g ai/ha) | Plant response rating, Mustard, Wild (mustard, wild [5]; 250 g ai/ha) | Plant response rating, Pigweed (pigweed; 125 g ai/ha) | Plant response rating, Pigweed (pigweed; 250 g ai/ha) | Plant response rating, Oat, Wild (oat, wild; 125 g ai/ha) | Plant response rating, Oat, Wild (oat, wild; 250 g ai/ha) | Plant response rating, Foxtail, Green (foxtail, green [6]; 62 g ai/ha) | Plant response rating, Foxtail, Green (foxtail, green [6]; 125 g ai/ha) | Plant response rating, Foxtail, Green (foxtail, green [6]; 250 g ai/ha) | Plant response rating, Blackgrass (blackgrass; 125 g ai/ha) | Plant response rating, Blackgrass (blackgrass; 250 g ai/ha)
30: Windgrass plant response rating (windgrass; Postemergence, 125 g ai/ha) | Foxtail, Green plant response rating (foxtail, green [4]; Postemergence, 31 g ai/ha) | Foxtail, Green plant response rating (foxtail, green [4]; postemergence, 62 g ai/ha) | Wheat, Spring plant response rating (wheat, spring; Postemergence, 250 g ai/ha)
65: Field Violet plant response rating (field violet; Postemergence, 125 g ai/ha) | Radish, Wild plant response rating (radish, wild [2]; Postemergence, 31 g ai/ha) | Radish, Wild plant response rating (radish, wild [2]; Postemergence, 125 g ai/ha) | Radish, Wild plant response rating (radish, wild [2]; Postemergence, 250 g ai/ha) | Radish, Wild plant response rating (radish, wild [2]; postemergence, 62 g ai/ha) | Plant response rating, Barley, Spring (barley, spring; 125 g ai/ha)
80: Plant response rating, Pigweed (pigweed; 62 g ai/ha)
90: Mustard, Wild plant response rating (mustard, wild [3]; Postemergence, 250 g ai/ha) | Plant response rating, Blackgrass (blackgrass; 62 g ai/ha)
75: Field Violet plant response rating (field violet; Postemergence, 250 g ai/ha) | Mustard, Wild plant response rating (mustard, wild [3]; Postemergence, 31 g ai/ha) | Mustard, Wild plant response rating (mustard, wild [3]; postemergence, 62 g ai/ha) | Plant response rating, Barley, Spring (barley, spring; 250 g ai/ha) | Chickweed plant response rating (chickweed; Postemergence, 250 g ai/ha)
60: Plant response rating, Canarygrass (canarygrass; 31 g ai/ha) | Plant response rating, Oat, Wild (oat, wild; 62 g ai/ha)
20: Ryegrass, Italian plant response rating (ryegrass, Italian; Postemergence, 125 g ai/ha) | Windgrass plant response rating (windgrass; Postemergence, 31 g ai/ha) | Windgrass plant response rating (windgrass; postemergence, 62 g ai/ha) | Plant response rating, Barley, Spring (barley, spring; 62 g ai/ha) | Wheat, Winter plant response rating (wheat, winter; Postemergence, 31 g ai/ha) | Wheat, Winter plant response rating (wheat, winter; postemergence, 62 g ai/ha)
40: Foxtail, Green plant response rating (foxtail, green [4]; Postemergence, 125 g ai/ha) | Wheat, Winter plant response rating (wheat, winter; Postemergence, 250 g ai/ha)
55: Field Violet plant response rating (field violet; Postemergence, 31 g ai/ha) | Field Violet plant response rating (field violet; postemergence, 62 g ai/ha) | Foxtail, Green plant response rating (foxtail, green [4]; Postemergence, 250 g ai/ha) | Chickweed plant response rating (chickweed; Postemergence, 31 g ai/ha) | Chickweed plant response rating (chickweed; postemergence, 62 g ai/ha)
15: Ryegrass, Italian plant response rating (ryegrass, Italian; Postemergence, 31 g ai/ha) | Ryegrass, Italian plant response rating (ryegrass, Italian; postemergence, 62 g ai/ha) | Wheat, Spring plant response rating (wheat, spring; Postemergence, 31 g ai/ha) | Wheat, Spring plant response rating (wheat, spring; Postemergence, 125 g ai/ha) | Wheat, Spring plant response rating (wheat, spring; postemergence, 62 g ai/ha)
25: Plant response rating, Barley, Winter (barley, winter; 31 g ai/ha) | Wheat, Winter plant response rating (wheat, winter; Postemergence, 125 g ai/ha)
85: Mustard, Wild plant response rating (mustard, wild [3]; Postemergence, 125 g ai/ha) | Galium plant response rating (galium; Postemergence, 250 g ai/ha)
70: Galium plant response rating (galium; Postemergence, 31 g ai/ha) | Galium plant response rating (galium; Postemergence, 125 g ai/ha) | Galium plant response rating (galium; postemergence, 62 g ai/ha) | Chickweed plant response rating (chickweed; Postemergence, 125 g ai/ha)
0: Plant response rating, Barley, Spring (barley, spring; 31 g ai/ha)

CCCc1cc(C(=O)NC2CC2)nn1Cc1cc(C(F)(F)F)nn1C [Compound 202]
20: Foxtail, Green plant response rating (foxtail, green [4]; Postemergence, 31 g ai/ha) | Foxtail, Green plant response rating (foxtail, green [4]; Postemergence, 125 g ai/ha) | Foxtail, Green plant response rating (foxtail, green [4]; postemergence, 62 g ai/ha) | Wheat, Winter plant response rating (wheat, winter; Postemergence, 125 g ai/ha) | Wheat, Spring plant response rating (wheat, spring; Postemergence, 250 g ai/ha)
80: Plant response rating, Foxtail, Green (foxtail, green [6]; 125 g ai/ha) | Plant response rating, Blackgrass (blackgrass; 250 g ai/ha)
25: Field Violet plant response rating (field violet; Postemergence, 31 g ai/ha) | Field Violet plant response rating (field violet; postemergence, 62 g ai/ha) | Windgrass plant response rating (windgrass; Postemergence, 125 g ai/ha) | Plant response rating, Barley, Winter (barley, winter; 125 g ai/ha) | Wheat, Winter plant response rating (wheat, winter; Postemergence, 250 g ai/ha)
5: Plant response rating, Blackgrass (blackgrass; 31 g ai/ha)
40: Plant response rating, Canarygrass (canarygrass; 62 g ai/ha)
15: Ryegrass, Italian plant response rating (ryegrass, Italian; Postemergence, 250 g ai/ha) | Windgrass plant response rating (windgrass; Postemergence, 31 g ai/ha) | Windgrass plant response rating (windgrass; postemergence, 62 g ai/ha) | Wheat, Winter plant response rating (wheat, winter; Postemergence, 31 g ai/ha) | Wheat, Winter plant response rating (wheat, winter; postemergence, 62 g ai/ha) | Plant response rating, Oat, Wild (oat, wild; 62 g ai/ha)
30: Foxtail, Green plant response rating (foxtail, green [4]; Postemergence, 250 g ai/ha)
65: Radish, Wild plant response rating (radish, wild [2]; Postemergence, 125 g ai/ha) | Plant response rating, Barley, Spring (barley, spring; 250 g ai/ha) | Plant response rating, Oat, Wild (oat, wild; 125 g ai/ha)
50: Field Violet plant response rating (field violet; Postemergence, 250 g ai/ha)
45: Field Violet plant response rating (field violet; Postemergence, 125 g ai/ha) | Plant response rating, Barley, Winter (barley, winter; 250 g ai/ha) | Chickweed plant response rating (chickweed; Postemergence, 125 g ai/ha)
70: Mustard, Wild plant response rating (mustard, wild [3]; Postemergence, 31 g ai/ha) | Mustard, Wild plant response rating (mustard, wild [3]; Postemergence, 125 g ai/ha) | Mustard, Wild plant response rating (mustard, wild [3]; postemergence, 62 g ai/ha) | Galium plant response rating (galium; Postemergence, 31 g ai/ha) | Galium plant response rating (galium; Postemergence, 125 g ai/ha) | Galium plant response rating (galium; postemergence, 62 g ai/ha) | Chickweed plant response rating (chickweed; Postemergence, 250 g ai/ha)
100: Plant response rating, Radish, Wild (radish, wild [1]; 62 g ai/ha) | Plant response rating, Radish, Wild (radish, wild [1]; 125 g ai/ha) | Plant response rating, Radish, Wild (radish, wild [1]; 250 g ai/ha) | Plant response rating, Deadnettle (deadnettle; 31 g ai/ha) | Plant response rating, Deadnettle (deadnettle; 62 g ai/ha) | Plant response rating, Deadnettle (deadnettle; 125 g ai/ha) | Plant response rating, Deadnettle (deadnettle; 250 g ai/ha) | Plant response rating, Mustard, Wild (mustard, wild [5]; 62 g ai/ha) | Plant response rating, Mustard, Wild (mustard, wild [5]; 125 g ai/ha) | Plant response rating, Mustard, Wild (mustard, wild [5]; 250 g ai/ha) | Plant response rating, Pigweed (pigweed; 62 g ai/ha) | Plant response rating, Pigweed (pigweed; 125 g ai/ha) | Plant response rating, Pigweed (pigweed; 250 g ai/ha) | Plant response rating, Oat, Wild (oat, wild; 250 g ai/ha) | Plant response rating, Foxtail, Green (foxtail, green [6]; 250 g ai/ha)
35: Windgrass plant response rating (windgrass; Postemergence, 250 g ai/ha) | Plant response rating, Foxtail, Green (foxtail, green [6]; 62 g ai/ha) | Plant response rating, Blackgrass (blackgrass; 62 g ai/ha)
55: Radish, Wild plant response rating (radish, wild [2]; Postemergence, 31 g ai/ha) | Radish, Wild plant response rating (radish, wild [2]; postemergence, 62 g ai/ha) | Plant response rating, Barley, Spring (barley, spring; 125 g ai/ha) | Chickweed plant response rating (chickweed; Postemergence, 31 g ai/ha) | Chickweed plant response rating (chickweed; postemergence, 62 g ai/ha)
0: Plant response rating, Barley, Winter (barley, winter; 31 g ai/ha) | Plant response rating, Barley, Winter (barley, winter; 62 g ai/ha) | Plant response rating, Barley, Spring (barley, spring; 31 g ai/ha) | Plant response rating, Barley, Spring (barley, spring; 62 g ai/ha)
85: Plant response rating, Canarygrass (canarygrass; 250 g ai/ha)
10: Plant response rating, Canarygrass (canarygrass; 31 g ai/ha) | Ryegrass, Italian plant response rating (ryegrass, Italian; Postemergence, 31 g ai/ha) | Ryegrass, Italian plant response rating (ryegrass, Italian; Postemergence, 125 g ai/ha) | Ryegrass, Italian plant response rating (ryegrass, Italian; postemergence, 62 g ai/ha) | Wheat, Spring plant response rating (wheat, spring; Postemergence, 31 g ai/ha) | Wheat, Spring plant response rating (wheat, spring; Postemergence, 125 g ai/ha) | Wheat, Spring plant response rating (wheat, spring; postemergence, 62 g ai/ha)
75: Plant response rating, Canarygrass (canarygrass; 125 g ai/ha) | Radish, Wild plant response rating (radish, wild [2]; Postemergence, 250 g ai/ha) | Mustard, Wild plant response rating (mustard, wild [3]; Postemergence, 250 g ai/ha) | Galium plant response rating (galium; Postemergence, 250 g ai/ha) | Plant response rating, Blackgrass (blackgrass; 125 g ai/ha)
